Experimental data taken from article PMC8270260, “4,7-Disubstituted 7H-Pyrrolo[2,3-d]pyrimidines and Their Analogs as Antiviral Agents against Zika Virus” (Molecules, 2021).

What was measured:
[1] = system: ZIKV; test: ZIKV titer-reduction assay (plaque assay); type: cell-based, Zika virus; details: Huh7, MOI 0.2, 72 hpi; for inhibition at 8.5 µM / EC50 / EC90 / inhibition at 1.5 µM: Zika virus; for inhibition at 8.5 µM / inhibition at 1.5 µM: Huh-7, 72 h; for EC50 / EC90: Huh-7
Method: (§1) Selected compounds were validated at 8.5 µM or 1.5 µM (for compounds considered toxic at higher concentrations) using titer-reduction assays. Huh7 cells (1.5 × 10^5 per well) were plated in 24-well plates. Next day, the cells were inoculated with ZIKV or DENV (MOI 0.2 or 0.05, respectively) and two hours later, the inoculum was replaced with post-infection medium containing compound of interest at 8.5 µM or 1.5 µM. Seventy-two hpi, supernatants from infected and treated cells were collected and viral titers were measured by plaque assay. To visualize plaques, confluent Vero cells in 24-well plates were inoculated with 1:10 serial dilutions of supernatants. After two hours, the inoculum was retired and replaced with 800 µL of overlay medium (MEM medium containing 1.3% methylcellulose, 2% FBS, 100 IU streptomycin/penicillin per mL and 10 mM HEPES). After 5 days (7 days for DENV), cells were washed with PBS, fixed with 2% formaldehyde, and stained using 0.5% crystal violet in 25% methanol. Infectious virus titer (pfu/mL) was determined using the following formula: number of plaques × dilution factor × (1/inoculum volume (mL)). Viral titers were normalized with DMSO-treated and infected cells (0% inhibition). The limit of detection was 200 pfu/mL (100% inhibition). […] Dose-response assays (Figure S4, Panels B and C) were performed for selected compounds using titer-reduction assays. We used a concentration range of 0.5 to 15 µM for all selected compounds except for compound 14 (range of 0.1–3 µM). Pfu/mL were normalized as mentioned for single-dose response experiment using the values for DMSO-treated and infected cells (0% inhibition) and the limit of detection value (200 pfu/mL) as 100% inhibition. Dose-response curves were built in GraphPad Prism and EC50 values were obtained from those curves.

[2] = system: ZIKV; test: ZIKV reporter assay (luciferase-expressing ZIKV PAN1 Nluc in Huh7 cells); type: cell-based; details: Zika virus, Huh-7, Huh7, MOI 0.2, 72 hpi
Method: The initial screening for ZIKV was performed using the in-house developed infectious ZIKV reporter expressing Nanoluc (ZIKV PAN1 Nluc) (see details in SI). Briefly, 1.5 × 10^4 Huh7 cells per well were seeded in 96 well plates. Next day, cells were inoculated with the ZIKV reporter at a multiplicity of infection (MOI) of 0.2 in infection medium (MEM medium supplemented with 1% FBS, 100 IU streptomycin/penicillin per mL, 1 mM sodium pyruvate and 10 mM HEPES). After 2 h, the inoculum was replaced with post-infection medium (MEM medium supplemented with 5% FBS, 100 IU streptomycin/penicillin per mL, 1 mM sodium pyruvate and 10 mM HEPES) containing compound of interest (10 µM). We used the flavivirus NS5 MTase inhibitor NSC12155^13 (10 µM) and the NS5 RdRp inhibitor NITD008^12 (1 µM) as positive controls for inhibition or 0.05% DMSO as vehicle control. Seventy-two hours post-infection (hpi), the cells were lysed with 50 µL 1× luciferase lysis buffer (Promega, Madison, WI, USA), incubated 10 min at room temp and stored at −80 °C. Thirty-five µL of lysed cells were transferred to a white 96-well plate and combined with 35 µL Nano-Glo® luciferase assay substrate (Promega) diluted 1:50 in Nano-Glo® luciferase assay buffer (Promega). The reaction was incubated for 2 min and luminescence readings were acquired using a Neo 2 plate reader (BioTek, Winooski, VT, USA). Percent inhibition was calculated in GraphPad Prism (San Diego, CA, USA) normalizing the luciferase signal to infected cells treated with DMSO (0% inhibition) and uninfected cells treated with DMSO (100% inhibition). EC50 values were calculated in GraphPad Prism using data obtained from dose-response experiments. For compounds 1 and 8, a range of concentrations between 0.05 and 15 µM were used. For compounds 11, 14, 23 and NSC12155, we used concentrations from 0.005 to 90 µM and 0.002 to 45 µM for NITD008.

[3] = biological target: ZIKV NS5 MTase (Zika virus, UniProt A0A024B7W1); test: ZIKV NS5 MTase biochemical assay; details: read-out: IC50 against ZIKV NS5 MTase
[4] = Cell viability assay (MTS); type: cell-based; details: human, non-infected Huh7 cells; for viability at 10 µM: normalized to DMSO; for CC50 at 72 h: Huh7 cells
Method: Cell viability assays for non-infected Huh7 cells treated with the testing compounds (in-house library), control compounds (NITD008, RDV) and DMSO were performed in parallel with the antiviral screening. After 3 or 5 days of treatment, depending upon the experiment, cell viability was evaluated using the MTS-based tetrazolium reduction CellTiter 96 Aqueous Non-Radioactive cell proliferation assay (Promega). Treatment was retired from the wells and the cells incubated with MTS diluted 1:10 in MEM medium supplemented with 10% FBS. Absorbance was measured at 490 nm wavelength. Readings were normalized with DMSO-treated cells (100%) and expressed as % viability. For dose-response experiments, we used concentrations between 0.01 and 90 µM and dose-response curves and CC50 were calculated using GraphPad Prism.

[5] = system: DENV-2; test: DENV titer-reduction assay (plaque assay); type: cell-based, dengue virus; details: 8.5 µM (compound 14 at 1.5 µM), Huh7, MOI 0.05, 72 h
Method: as §1
Figure 2 Inhibition of DENV by selected compounds. Huh7 cells were plated in 24 well plate. Next day, cells were inoculated with DENV (MOI = 0.05). After 2 h of infection inoculum was retired and the cells were treated with inhibitors at 8.5 µM (except for compound 14, 1.5 µM) for 72 h. Next, supernatants were assayed for viral titer by plaque assay and titers were normalized vs DMSO and expressed as % inhibition. The experiment was performed two independent times and each sample was performed in triplicate. The bars depict mean plus standard error of the mean.

ZIKV NS5 MTase, sequence (A0A024B7W1 2521-2785): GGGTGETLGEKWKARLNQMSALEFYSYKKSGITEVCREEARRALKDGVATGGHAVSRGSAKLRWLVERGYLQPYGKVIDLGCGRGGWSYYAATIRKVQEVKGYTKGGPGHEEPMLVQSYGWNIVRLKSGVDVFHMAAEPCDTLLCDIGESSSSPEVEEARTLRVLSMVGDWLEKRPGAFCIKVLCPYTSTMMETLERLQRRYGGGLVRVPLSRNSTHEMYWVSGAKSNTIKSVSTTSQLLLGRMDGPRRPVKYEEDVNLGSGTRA

Compound | inhibition at 8.5 µM [1] | EC50 [1] | EC90 [1] | inhibition at 10 µM [2] | EC50 [2] | IC50 [3] | viability at 10 µM [4] | CC50 at 72 h [4] | Inhibition of DENV (% inhibition / protection) [5] | inhibition at 1.5 µM [1] | Titer Reduction Assay EC99 ([1]; NR = not reached)
O=[N+]([O-])c1ccc(Cn2ccc3c(NCc4cccc(Cl)c4)ncnc32)cc1 [Compound 1, N-(3-Chlorobenzyl)-7-(4-nitrobenzyl)-7H-pyrrolo [2,3-d]pyrimidin-4-amine] | 93% | 5.21 µM | 10.7 µM | 73% | 5.25 µM | > 100 µM | 69% | 20 µM | among the top inhibitors | – | –
N#Cc1ccc(Cn2ccc3c(NCc4cccc(Cl)c4)ncnc32)cc1 [Compound 8, 4-((4-((3-Chlorobenzyl)amino)-7H-pyrrolo[2,3-d]pyrimidin-7-yl)methyl)benzonitrile] | 97% | 4.29 µM | 9.02 µM | 78% | 4.1 µM | – | 68% | 20.6 µM | among the top inhibitors | 47% | –
N#Cc1cccc(Cn2ccc3c(NCc4cccc(Cl)c4)ncnc32)c1 [Compound 11, 3-((4-((3-Chlorobenzyl)amino)-7H-pyrrolo[2,3-d]pyrimidin-7-yl)methyl)benzonitrile] | 99% | 5.05 µM | 6.98 µM | 90% | 3.16 µM | – | 60% | 15.3 µM | among the top inhibitors | – | –
O=[N+]([O-])c1ccc(Cn2ccc3c(NCc4cc(Cl)ccc4Cl)ncnc32)cc1 [Compound 22, N-(2,5-Dichlorobenzyl)-7-(4-nitrobenzyl)-7H-pyrrolo[2,3-d]pyrimidin-4-amine] | 77% | – | – | 71% | – | – | 62% | 26.9 µM | – | – | –
O=[N+]([O-])c1ccc(Cn2ccc3c(NCc4ccc(Cl)c(Cl)c4)ncnc32)cc1 [Compound 23, N-(3,4-Dichlorobenzyl)-7-(4-nitrobenzyl)-7H-pyrrolo[2,3-d]pyrimidin-4-amine] | 98% | 5.91 µM | 10.4 µM | 91% | 5.7 µM | – | 80% | 26.8 µM | among the top inhibitors | – | 12.0 µM
O=[N+]([O-])c1ccc(Cn2ccc3c(NCc4cccc5ccccc45)ncnc32)cc1 [Compound 24, N-(Naphthalen-1-ylmethyl)-7-(4-nitrobenzyl)-7H-pyrrolo[2,3-d]pyrimidin-4-amine] | – | – | – | 94% | – | – | 44% | – | – | 13% | –
O=[N+]([O-])c1ccc(Cn2cnc3c(NCc4cccc(Cl)c4)ncnc32)cc1 [Compound 29, N-(3-Chlorobenzyl)-9-(4-nitrobenzyl)-9H-purin-6-amine] | 90% | – | – | 59% | – | – | 87% | 24.5 µM | – | – | –
N#Cc1ccc(Cn2cnc3c(NCc4cccc(Cl)c4)ncnc32)cc1 [Compound 30, 4-((6-((3-Chlorobenzyl)amino)-9H-purin-9-yl)methyl)benzonitrile] | 93% | 7.12 µM | 12.4 µM | 68% | – | – | 94% | 49.3 µM | – | – | –
O=[N+]([O-])c1ccc(Cn2ncc3c(NCc4cccc(Cl)c4)ncnc32)cc1 [Compound 31, N-(3-Chlorobenzyl)-1-(4-nitrobenzyl)-1H-pyrazolo[3,4-d]pyrimidin-4-amine] | 86% | – | – | 83% | – | – | 96% | – | – | – | –
N#Cc1ccc(Cn2ncc3c(NCc4cccc(Cl)c4)ncnc32)cc1 [Compound 32, 4-((4-((3-Chlorobenzyl)amino)-1H-pyrazolo[3,4-d]pyrimidin-1-yl)methyl)benzonitrile] | 88% | – | – | 79% | – | – | 88% | 17.4 µM | – | – | –
Cc1cc(N)c2cc(NC(=O)Nc3ccc4nc(C)cc(N)c4c3)ccc2n1 [NSC 12155, reference compound] | 72% | 7.34 µM | 14.1 µM | 68% | 2.18 µM | – | 70% | 23 µM | – | 37% | –
